Patent US6867299B2, “Oxamide IMPDH inhibitors” (Hoffmann-La Roche Inc., priority 2000, dated 2005)
Counter-ions that a name gives are not always drawn.

Biological target: IMPDH (human type II) (Homo sapiens, UniProt P12268)
Assay: IMPDH inhibitor assay, spectrophotometric (NADH formation at 340 nm)
Assay type: biochemical
Conditions: 37° C., pH8.0, 2.5% DMSO, 10 concentrations of inhibitor
Method: IMPDH activity can be assayed using an adaptation of the method reported by Carr [S. Carr et al., J. Biol. Chem. 268, p.27286 (1993)], the disclosure of which is herein incorporated by reference. IMPDH activity was measured spectrophotometrically, by monitoring the increase in absorbance at 340 nm due to the formation of NADH (ε340 is 6220 M−1 cm−1) from the reduction of NAD. The IMPDH reaction mixture contained 0.1M Tris pH8.0, 0.1M KCl, 1 mM DTT, 3 mM EDTA, […]. The reaction was initiated by the addition of IMPDH (human type II) to a final concentration in the assay of between 1 nM and 5 nM with respect to the IMPDH tetramer. The initial rate is measured by following the linear increase in absorbance at 340 nm at 37° C. for 45 minutes. The reading was conducted using a Spectromax 190 (Molecular Devices) spectrophotometer in a 96 well plate format with a final reaction volume of 200 μl.
For inhibitor assay analysis, the compound is dissolved in DMSO to a final concentration of 10 mM and added to the initial reaction mixture as 5 μl to give final DMSO concentration of 2.5%. The enzyme reaction is initiated by the addition of IMPDH and the initial rates measured as above. IC50 determinations are made by measuring the initial rates in the presence of 10 concentrations of inhibitor and fitting the data using the 4 parameter curve fit from the Softmax pro software (Molecular Devices).

Structure (SMILES) | IC50
COc1cc(NC(=O)C(=O)NC(C)(C)CO)ccc1-c1cnco1 [N-(2-Hydroxy-1,1-dimethylethyl)-N′-[3-methoxy-4-(5-oxazolyl)phenyl]oxalamide] | 72 nM
COc1cc(NC(=O)C(=O)NC(C)(C)CC(C)(C)C)ccc1-c1cnco1 [N-[3-Methoxy-4-(5-oxazolyl)phenyl]-N′-(1,1,3,3-tetramethyl-butyl)oxalamide] | 34 nM
COc1cc(NC(=O)C(=O)Nc2cccc(CN)c2)ccc1-c1cnco1 [N-[3-(Aminomethyl)phenyl]-N′-[3-methoxy-4-(5-oxazolyl)phenyl]oxalamide trifluoroacetate (1:1)] | 233 nM
COc1cc(NC(=O)C(=O)NC(C)(C)c2ccccc2)ccc1-c1cnco1 [N-[3-Methoxy-4-(5-oxazolyl)phenyl]-N′-(1-methyl-1-phenylethyl)oxalamide] | 30 nM
C#CC(C)(C)NC(=O)C(=O)Nc1ccc(-c2cnco2)c(OC)c1 [N-(1,1-Dimethylpropargyl)-N′-[3-methoxy-4-(5-oxazolyl)phenyl]oxalamide] | 48 nM
COc1cc(NC(=O)C(=O)NC(C)(C)CN(C)C)ccc1-c1cnco1 [N-(2-Dimethylamino-1,1-dimethylethyl)-N′-[3-methoxy-4-(5-oxazolyl)phenyl]oxalamide hydrochloride (1:1)] | 170 nM
COc1cc(NC(=O)C(=O)Nc2cccc(CNC(=O)Oc3ccccc3)c2)ccc1-c1cnco1 [Phenyl [3-[[[4-(5-oxazolyl)anilino]oxalyl]amino]benzyl]carbamate] | 11 nM
CCC(C)(C)NC(=O)C(=O)Nc1ccc(-c2cnco2)c(OC)c1 [N-(1,1-Dimethylpropyl)-N′-[3-methoxy-4-(5-oxazolyl)phenyl]oxalamide] | 31 nM
COc1cc(NC(=O)C(=O)NC(C)(C)CN)ccc1-c1cnco1 [N-(2-Amino-1,1-dimethylethyl)-N′-[3-methoxy-4-(5-oxazolyl)kphenyl]oxalamide trifluoroacetate (1:1)] | 97 nM
COc1cc(NC(=O)C(=O)Nc2cccc(CNC(=O)OC(C)C)c2)ccc1-c1cnco1 [Isopropyl [3-[[[3-methoxy-4-(5-oxazolyl)anilino]oxalyl]amino]benzyl]carbamate] | 33 nM
COc1cc(NC(=O)C(=O)NC(C)(C)Cc2ccccc2)ccc1-c1cnco1 [N-(1,1-Dimethyl-2-phenylethyl)-N′-[3-methoxy-4-(5-oxazolyl)phenyl]oxalamide] | 15 nM
COC(=O)NCc1cccc(NC(=O)C(=O)Nc2ccc(-c3cnco3)c(OC)c2)c1 [Methyl [3-[[[3-methoxy-4-(5-oxazolyl)anilino]oxalyl]amino]benzyl] carbamate] | 121 nM
COc1cc(NC(=O)C(=O)Nc2cccc(CNC(=O)c3ccccc3)c2)ccc1-c1cnco1 [N-[3-(Benzamidomethyl)phenyl]-N′-[3-methoxy-4-(5-oxazolyl)phenyl]oxalamide] | 13 nM

Other lines, results leading:

IC50 | Structure (SMILES)
10 nM | COc1cc(NC(=O)C(=O)NC(C)(C)Cc2ccc([N+](=O)[O-])cc2)ccc1-c1cnco1 [N-[3-Methoxy-4-(5-oxazolyl)phenyl]-N′-[1,1-dimethyl-2-(4-nitrophenyl)ethyl]oxalamide]
125 nM | COc1cc(NC(=O)C(=O)Nc2cccc(CNS(=O)(=O)c3ccccc3)c2)ccc1-c1cnco1 [N-[3-[(Benzenesulfonamido)methyl]phenyl]-N′-[3-methoxy-4-(5-oxazolyl)phenyl]oxalamide]
169 nM | CC(C)(C)NC(=O)C(=O)Nc1ccc(-c2cnco2)c(Cl)c1 [N-tert-Butyl-N′-[3-chloro-4-(5-oxazolyl)phenyl]oxalamide]
44 nM | COc1cc(NC(=O)C(=O)Nc2cccc(CNC(=O)O[C@H]3CCOC3)c2)ccc1-c1cnco1 [[3-[[[3-Methoxy-4-(5-oxazolyl)anilino]oxalyl]amino]benzyl]carbamic acid tetrahydro-3(S)-furyl ester]
277 nM | COc1cc(NC(=O)C(=O)Nc2cccnc2)ccc1-c1cnco1 [N-[3-Methoxy-4-(5-oxazolyl)phenyl]-N′-(3-pyridyl)oxalamide]
36 nM | COc1cc(NC(=O)C(=O)Nc2cccc(CNC(=O)OC(C)(C)C)c2)ccc1-c1cnco1 [tert-Butyl [3-[[[3-methoxy-4-(5-oxazolyl)anilino]oxalyl]amino]benzyl]carbamate]
460 nM | COc1cc(NC(=O)C(=O)NC(C)(C)C)ccc1-c1cocn1 [N-tert-Butyl-N′-[3-methoxy-4-(4-oxazolyl)phenyl]oxalamide]
37 nM | COc1cc(NC(=O)C(=O)NC(C)(C)C)ccc1-c1cnco1 [N-tert-Butyl-N′-[3-methoxy-4-(5-oxazolyl)phenyl]oxalamide]
75 nM | COc1cc(NC(=O)C(=O)NC(C)(C)CNC(=O)OC(C)(C)C)ccc1-c1cnco1 [tert-Butyl [2-[[[3-methoxy-4-(5-oxazolyl)anilino]oxalyl]amino]-2-methylpropyl]carbamate]
199 nM | CNC(=O)C(C)(C)NC(=O)C(=O)Nc1ccc(-c2cnco2)c(OC)c1 [N-[3-Methoxy-4-(5-oxazolyl)phenyl]-N′-[1-methyl-1-(methylcarbamoyl)ethyl]oxalamide]
35 nM | COc1cc(NC(=O)C(=O)Nc2cccc(CC(=O)Nc3ccccc3)c2)ccc1-c1cnco1 [N-[3-Methoxy-4-(5-oxazolyl)phenyl]-N′-[3-[(phenylcarbamoyl)methyl]phenyl]oxalamide]
